Results taken from US20190322676A1, “CERAMIDE GALACTOSYLTRANSFERASE INHIBITORS FOR THE TREATMENT OF DISEASE” (BioMarin Pharmaceutical Inc., priority 2016, published 2019).
Where a name gives a salt, the structure may show the parent alone.

Target: T1, human CGT (ceramide galactosyltransferase), CHO/CGT lysate (Homo sapiens, UniProt Q16880)
T1 construct: Full-length human CGT cDNA was cloned into the BamH1/Xho1 site of pcDNA3.1 (+); expressed in transfected cells; host or cells: Chinese hamster ovary (CHO) cells; lysate prepared with M-PER
T1 sequence (Q16880 21-541): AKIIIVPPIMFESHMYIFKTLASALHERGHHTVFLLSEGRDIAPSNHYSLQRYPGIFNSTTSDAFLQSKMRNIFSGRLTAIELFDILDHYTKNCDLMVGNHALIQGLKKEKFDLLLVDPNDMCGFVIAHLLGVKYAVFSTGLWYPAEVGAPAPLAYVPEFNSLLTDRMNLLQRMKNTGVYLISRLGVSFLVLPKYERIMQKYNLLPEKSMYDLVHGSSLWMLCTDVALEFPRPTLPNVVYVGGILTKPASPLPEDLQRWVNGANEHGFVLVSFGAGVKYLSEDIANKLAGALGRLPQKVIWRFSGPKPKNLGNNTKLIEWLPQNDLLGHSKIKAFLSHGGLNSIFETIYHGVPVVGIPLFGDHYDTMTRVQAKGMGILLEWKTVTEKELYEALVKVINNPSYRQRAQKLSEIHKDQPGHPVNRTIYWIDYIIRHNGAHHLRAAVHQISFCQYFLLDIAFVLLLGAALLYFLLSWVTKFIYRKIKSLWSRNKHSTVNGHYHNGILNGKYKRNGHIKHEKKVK
Test: CGT enzyme assay, RapidFire/MS/MS readout (Table 1 ranges with one asterisk *)
Assay type: biochemical
Conditions: RapidFire method (range with one asterisk *)
Summary of the method: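 Lysate (4 μg) of CHO cells transfected with full-length human CGT incubated 1 h at 37 °C with compound (0.001–50 μM) in pH 7.2 HEPES buffer with 10 μM C6-NBD-dihydro-ceramide, 17.5 μM UDP-galactose, Mg2+/Mn2+, CHAPS, BSA, 0.5% DMSO; ** set also contained 0.01% Tween 80. Product quantified by RapidFire/MS/MS, normalized to internal standard; IC50 from sigmoidal variable-slope fits.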

SMILES | IC50 [µM]
CN([C@@H](C(=O)N1CCC(N)CC1)C(F)(F)c1ccc(Oc2ccccc2)cc1)S(=O)(=O)c1ccc(OCC2CCCCC2)cc1 [Compound 64-2, (S)—N-(3-(4-aminopiperidin-1-yl)-1,1-difluoro-3-oxo-1-(4-phenoxyphenyl)propan-2-yl)-4-(cyclohexylmethoxy)-N-methylbenzenesulfonamide] | 10 to 30
NC1CC2CCC(C1)N2C(=O)[C@@H](NS(=O)(=O)c1ccc2cc(OC3CCCC3)ccc2c1)C(F)(F)c1cccc(Br)c1 (stereo partly drawn) [Compound 65-1, N-((2R)-3-(3-amino-8-azabicyclo[3.2.1]octan-8-yl)-1-(3-bromophenyl)-1,1-difluoro-3-oxopropan-2-yl)-6-(cyclopentyloxy)naphthalene-2-sulfonamide] | 1 to 10
NC1CC2CCC(C1)N2C(=O)[C@H](NS(=O)(=O)c1ccc2cc(OC3CCCC3)ccc2c1)C(F)(F)c1cccc(Br)c1 (stereo partly drawn) [Compound 65-2, N-((2S)-3-(3-amino-8-azabicyclo[3.2.1]octan-8-yl)-1-(3-bromophenyl)-1,1-difluoro-3-oxopropan-2-yl)-6-(cyclopentyloxy)naphthalene-2-sulfonamide] | 10 to 30
NC1CC2CCC(C1)N2C(=O)[C@@H](NS(=O)(=O)c1ccc2cc(OC3CCCC3)ccc2c1)C(F)(F)c1cccc(-c2ccccc2)c1 (stereo partly drawn) [Compound 66-1, N-((2R)-1-([1,1′-biphenyl]-3-yl)-3-(3-amino-8-azabicyclo[3.2.1]octan-8-yl)-1,1-difluoro-3-oxopropan-2-yl)-6-(cyclopentyloxy)naphthalene-2-sulfonamide] | < 1
NC1CC2CCC(C1)N2C(=O)[C@H](NS(=O)(=O)c1ccc2cc(OC3CCCC3)ccc2c1)C(F)(F)c1cccc(-c2ccccc2)c1 (stereo partly drawn) [Compound 66-2, N-((2S)-1-([1,1′-biphenyl]-3-yl)-3-(3-amino-8-azabicyclo[3.2.1]octan-8-yl)-1,1-difluoro-3-oxopropan-2-yl)-6-(cyclopentyloxy)naphthalene-2-sulfonamide] | 1 to 10
CN([C@H](C(=O)N1C2CCC1CC(N)C2)C(F)(F)c1cccc(Br)c1)S(=O)(=O)c1ccc2cc(OC3CCCC3)ccc2c1 (stereo partly drawn) [Compound 67-1, N-((2R)-3-(3-amino-8-azabicyclo[3.2.1]octan-8-yl)-1-(3-bromophenyl)-1,1-difluoro-3-oxopropan-2-yl)-6-(cyclopentyloxy)-N-methylnaphthalene-2-sulfonamide] | 1 to 10
CN([C@@H](C(=O)N1C2CCC1CC(N)C2)C(F)(F)c1cccc(Br)c1)S(=O)(=O)c1ccc2cc(OC3CCCC3)ccc2c1 (stereo partly drawn) [Compound 67-2, N-((2S)-3-(3-amino-8-azabicyclo[3.2.1]octan-8-yl)-1-(3-bromophenyl)-1,1-difluoro-3-oxopropan-2-yl)-6-(cyclopentyloxy)-N-methylnaphthalene-2-sulfonamide] | 30 to 100
CCN([C@H](C(=O)N1C2CCC1CC(N)C2)C(F)(F)c1ccc(Br)cc1)S(=O)(=O)c1ccc2cc(OC3CCCC3)ccc2c1 (stereo partly drawn) [Compound 68-1, N-((2R)-3-(3-amino-8-azabicyclo[3.2.1]octan-8-yl)-1-(4-bromophenyl)-1,1-difluoro-3-oxopropan-2-yl)-6-(cyclopentyloxy)-N-ethylnaphthalene-2-sulfonamide] | 1 to 10
CCN([C@@H](C(=O)N1C2CCC1CC(N)C2)C(F)(F)c1ccc(Br)cc1)S(=O)(=O)c1ccc2cc(OC3CCCC3)ccc2c1 (stereo partly drawn) [Compound 68-2, N-((2S)-3-(3-amino-8-azabicyclo[3.2.1]octan-8-yl)-1-(4-bromophenyl)-1,1-difluoro-3-oxopropan-2-yl)-6-(cyclopentyloxy)-N-ethylnaphthalene-2-sulfonamide] | 30 to 100
NC1CCN(C(=O)[C@@H](NS(=O)(=O)c2ccc3cc(OC4CCCC4)ccc3c2)C(F)(F)c2cccc(-c3ccccc3)c2)CC1 [Compound 69-1, (R)—N-(1-([1,1′-biphenyl]-3-yl)-3-(4-aminopiperidin-1-yl)-1,1-difluoro-3-oxopropan-2-yl)-6-(cyclopentyloxy)naphthalene-2-sulfonamide trifluoroacetate] | 1 to 10
